Laboratory results reported in PubChem BioAssay (NCI).
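Dose response: 5 concentrations. Exposure: 48 h. Format: 96-well plates. Endpoint: linear interpolation; highest concentration if not reached. TGI: total growth inhibition.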

Legend:
Experiment in all cases: DTP human tumour cell line panel, 48 h
[1] = system: NCI-H23 lung
[2] = system: SNB-75 CNS
[3] = system: PC-3 prostate
[4] = system: HCT-116 colon
[5] = system: UO-31 renal
[6] = system: UACC-257 melanoma
[7] = system: T-47D breast
[8] = system: A549 NSCLC
[9] = system: SNB-19 CNS
[10] = system: HOP-92 NSCLC
[11] = system: SK-MEL-28 melanoma
[12] = system: OVCAR-5 ovarian
[13] = system: OVCAR-8 ovarian
[14] = system: NCI-H460 lung
[15] = system: MDA-N
[16] = system: MCF7 breast
[17] = system: M14 melanoma
[18] = system: DU-145 prostate
[19] = system: SF-295 CNS
[20] = system: EKVX NSCLC
[21] = system: U251 CNS
[22] = system: MDA-MB-435
[23] = system: OVCAR-4 ovarian
[24] = system: 786-0 renal
[25] = system: HL-60(TB) leukemia
[26] = system: SN12C renal
[27] = system: IGROV1 ovarian
[28] = system: TK-10 renal
[29] = system: HT29 colon
[30] = system: NCI/ADR-RES ovarian
[31] = system: NCI-H522 lung
[32] = system: SK-MEL-2 melanoma
[33] = system: A498 renal
[34] = system: HCT-15 colon
[35] = system: RPMI-8226 leukemia
[36] = system: ACHN renal
[37] = system: KM12 colon
[38] = system: HCC-2998 colon
[39] = system: UACC-62 melanoma
[40] = system: MOLT-4 leukemia
[41] = system: MDA-MB-231 breast
[42] = system: LOX IMVI melanoma
[43] = system: SK-OV-3 ovarian
[44] = system: BT-549 breast
[45] = system: SF-268 CNS
[46] = system: CAKI-1 renal
[47] = system: OVCAR-3 ovarian
[48] = system: K-562 leukemia
[49] = system: HOP-62 NSCLC
[50] = system: RXF 393 renal
[51] = system: SK-MEL-5 melanoma
[52] = system: SW-620 colon
[53] = system: MALME-3M melanoma
[54] = system: COLO 205 colon
[55] = system: NCI-H226 lung
[56] = system: CCRF-CEM leukemia
[57] = system: HS 578T breast
[58] = system: SF-539 CNS
[59] = system: SR leukemia

Measured: TGI

CC(=O)Oc1ccc2c(c1)Oc1cc(C(C)=O)ccc1C21OC(=O)c2ccccc21 (stereo unspecified)
not listed: [55] | [56] | [57] | [58] | [59]
> 100 µM: all other assays above

COc1ccc2cc(C(C)C(O)c3cc(F)c(F)c(F)c3F)ccc2c1 (stereo unspecified)
43.6 µM: [2]
not listed: [31] | [32] | [37] | [40] | [46] | [50] | [57] | [58] | [59]
> 100 µM: all other assays above

N#Cc1ccc(Oc2nc3ccccc3nc2-c2ccccc2)cc1
not listed: [2] | [7] | [8] | [13] | [17] | [30] | [58] | [59]
> 100 µM: all other assays above

COc1c(C)c(C/C=C(\C)CCCCO[Si](C(C)C)(C(C)C)C(C)C)c(OC)c2ccccc12
89.3 µM: [56]
not listed: [7] | [11] | [25] | [33] | [35] | [38] | [53] | [55]
> 100 µM: all other assays above
